Assay results from patent US20210106582A1, “COMPOUNDS AND PHARMACEUTICAL COMPOSITIONS THEREOF FOR USE IN THE TREATMENT OF FIBROTIC DISEASES” (Galapagos NV, priority 2017, published 2021).
“And” between values parts separate entries of the source, which are not always exact repeats. Equal values may be shown once.

Experiments:
Format in all cases: in vivo
[1] = tested on: female C57BL/6J mice, lung fibrosis induced by radiation; test: Radiation induced fibrosis mice model; details: individual animals, irradiated lung, CpdA 30 mg/kg QD PO D1-D14
Protocol: Pneumonitis and lung fibrosis are the major radiation-induced complications following thoracic radiotherapy, which is one of the major treatment of lung and breast cancers, lymphomas and hematopoietic transplant conditioning.
The objective of this model is to evaluate the effect of a compound of the invention in lung fibrosis induced by radiation in mice. (Bickelhaupt et al., 2017)
7 weeks old (18/22 gr) female C57BL/6J mice from Charles River (France) are maintained on 12 h light/dark cycle at 22° C. with ad libidum access to tap water and food.
The test compounds are dissolved/suspended in appropriate vehicle prior to using and then kept light-free, under agitation at room temperature.
The dose volume administered is 10 mL/kg and the volume is adapted following mean body weight (BW) of the group as follows: 200 μL if mean BW<22.5 g, 250 μL if mean BW≥22.5 g; 300 μL if mean BW>27.5 g.
On day 1 of week 1, the animals are exposed at the thorax to a 17 Gray irradiation dose, under isoflurane anesthesia. […]
Body weight are recorded once a week, and on Day 14, lung function measurement under anesthesia is realized by Flexivent (Devos et al., 2017) for all groups before sacrifice.
At sacrifice on Day 14, the lungs are collected and fixed in 4% formaldehyde for 24 h before embedding in paraffin. […] The anti-collagen I antibody is detected and amplified by ImmPress kit (Vector Laboratories, Cat. No: MP-7401). The immunostained sections are then scanned (Nanozoomer 2.0HT, Hamamatsu) before quantification by image analysis (CaloPix software, TRIBVN Healthcare). Data are expressed as percentage collagen I area per area of lung tissue.
Values for all mice from the same group are averaged. Data are expressed as mean±sem and are compared with a one-way ANOVA followed by Dunnett multiple comparison post hoc test. […]
Manganese superoxide dismutase (MnSOD), located in mitochondria, catalyzes the conversion of superoxide into H2O2, and is a marker of antioxidant response induced by oxidative stress. MnSOD expression is measured immunohistochemically following a protocol adapted from Inghilleri et al. (Inghilleri et al., 2006).
At sacrifice on Day 14, the lungs are collected and fixed in 4% formaldehyde for 24 h before embedding in paraffin. […] The anti-MnSOD antibody is detected by an anti-rabbit biotinylated antibody (Vector Laboratories, Cat. No: BA-1100) amplified by avidin-biotin peroxidase (Vector Laboratories, Cat. No: PK-6100). […] The immunostained sections counterstained with Gill's hematoxylin are then scanned (Nanozoomer 2.0HT, Hamamatsu) before quantification by image analysis (CaloPix software, TRIBVN Healthcare). Data are expressed as percentage MnSOD stained area per area of lung tissue.

[2] = tested on: male C57BL/6 mice fed CDAHF diet; test: CDAHFD model (choline-deficient, L-amino acid-defined, high-fat diet); details: individual animals, CDAHFD 10W, 30 mg/kg q.d. p.o.
[3] = tested on: C57BL/6N male mice, bleomycin induced pulmonary fibrosis; test: Therapeutic bleomycin induced pulmonary fibrosis 21-day mice model; details: individual animals, BLM, CpdA 30 mg/kg BID PO D7-D21
Protocol: The aim of the study is to test the efficacy of a test compound at three different doses in a 21-day model of bleomycin induced pulmonary fibrosis in mice.
11 week-old C57BL/6N male mice from Charles River (Italy) are maintained on 12 h light/dark cycle at 22° C. with ad libidum access to tap water and food.
On day 0, all mice in groups 2-4 receive a 1.5 U/kg oropharyngeal administration of bleomycin (BLM) to induce pulmonary fibrosis Animals in group 1 are not administered bleomycin, but instead receive a single dose of saline via the oropharyngeal route, and are considered sham control mice.
Animals are examined clinically twice daily. List of clinical signs and parameters are indicated in humane endpoints table. Animals are weighed daily starting from DO.
On day 21, lung functionality is determined. After deep anesthesia induced by an intraperitoneal injection (10 mL/kg) of a solution of xylazine (5 mg/kg) and ketamine (75 mg/kg), the trachea is exposed through midline incision and a cannula is inserted. Mice are ventilated with a tidal volume of 10 mL/kg at a frequency of 150 breaths/minute. FlexiVent (SCIREQ®) perturbations are performed three times. Deep Inflation and Pressure-Volume loops (PV loops) with stepwise increasing pressure are performed to measure the Inspiratory Capacity and stepwise pressure-driven perturbation (PVs-P). PV loops between 0 and 30 cm H2O are generated to obtain Total Lung Capacity (A). A snapshot perturbation maneuver is imposed, which is a threefold sinusoidal wave of in- and expiration controlled by the ventilator, resulting in resistance (Rrs), compliance (Crs), and elastance (Ers) of the whole respiratory system (airways, lung and chest wall). A value for each group is calculated with average FlexiVent-validated measurements recorded in each individual subject.
Then, two hours after the last dose of test substance and nintedanib, mice are sacrificed by anesthetic overdose. The lungs are excised and weighed individually. The lungs are then placed into marked bottles containing 10% buffered formalin for further histopathological evaluation.
Body weight data and lung weight data are processed using MS Excel. Statistical analysis and graphical presentation are performed using GraphPad Prism software (version 5.04).
For histopathological evaluation, whole lungs are embedded in paraffin and stained with Mallory's trichrome.
Pulmonary histological changes are assessed using Matsuse's modification of Ashcroft score (Ashcroft et al., 1988; Matsuse et al., 1999). Statistical analysis and graphical presentation is performed using GraphPad Prism software (version 5.04). Mann-Whitney test is employed.
Differences between groups are considered statistically significant when p<0.05.

## O=c1nc(OC[C@@H]2COCCO2)cc2n1CCc1cc(C#CC3CC3)ccc1-2 [Compound A, 9-Cyclopropylethynyl-2-((S)-1-[1,4]dioxan-2-ylmethoxy)-6,7-dihydro-pyrimido[6,1-a]isoquinolin-4-one]
[1]; Figure 15
  Type I collagen stained area fraction: 16.2% and 14.7% and 11.0% and 13.0% and 8.7% and 8.1% and 6.5% and 8.9% and 9.1% and 8.6%
[1]; Figure 16
  MnSOD stained area fraction: 0.31% and 0.74% and 0.39% and 0.57% (3×) and 0.71% and 0.66% and 0.99% and 0.26%
[2]; Fig 12 panel A
  Col1a1 expression profiles (NRQ-scaled versus Disease-Vehicle): 1.76 and 0.36 and 0.49 and 0.35 and 0.43 and 0.38 and 0.10 and 0.18 and 0.12 and 0.26
[2]; Figure 12 panel B
  TNFα expression profiles (NRQ-scaled versus Disease-Vehicle): 0.53 (2×) and 0.89 and 0.77 and 0.46 and 0.67 and 0.80 and 0.64 and 0.97 and 0.59
[2]; liver, Figure 11
  Fibrosis (Sirius red area %): 0.53% (2×) and 0.89% and 0.77% and 0.46% and 0.67% and 0.80% and 0.64% and 0.97% and 0.59%
[3]; Figure 14 panel B
  Compliance of the Respiratory System: 0.034 mL/cmH2O and 0.030 mL/cmH2O and 0.035 mL/cmH2O and 0.037 mL/cmH2O and 0.036 mL/cmH2O and 0.033 mL/cmH2O and 0.041 mL/cmH2O (2×) and 0.031 mL/cmH2O and 0.038 mL/cmH2O and 0.046 mL/cmH2O and 0.042 mL/cmH2O
[3]; Figure 14 panel C
  Elastance of the Respiratory System: 29.43 cmH2O/mL and 33.18 cmH2O/mL and 28.94 cmH2O/mL and 26.99 cmH2O/mL and 27.50 cmH2O/mL and 30.18 cmH2O/mL and 24.40 cmH2O/mL and 31.90 cmH2O/mL and 26.35 cmH2O/mL and 21.92 cmH2O/mL and 23.92 cmH2O/mL and 24.49 cmH2O/mL
[3]; Matsuse's modification, Figure 13
  Ashcroft Score: 2.4 and 3.0 and 2.5 and 3.3 and 3.4 (2×) and 2.9 (2×) and 2.7 (2×) and 3.6 and 2.3 and 2.0 and 2.1
[3]; day 21 FlexiVent, Figure 14 panel A
  Inspiratory Capacity: 0.58 mL (2×) and 0.66 mL and 0.65 mL and 0.59 mL and 0.75 mL and 0.69 mL (2×) and 0.84 mL and 0.73 mL and 0.71 mL
